Measured values taken from publication PMC8091166 (Journal of the American Chemical Society, 2017).

Columns and labels:
[1] = system: MRC-5 normal lung fibroblasts; assay: Cell viability in MRC-5 cells; type: cell-based
[2] = system: A549 CisR cisplatin-resistant lung cancer cell line; assay: Cell viability in A549 CisR cells; type: cell-based
[3] = system: A2780 ovarian cancer cell line; assay: Cell viability in A2780 cells; type: cell-based
[4] = system: H460 lung cancer cell line; assay: Cell viability in H460 cells; type: cell-based
[5] = system: A549 lung cancer cell line; assay: Cell viability in A549 cells; type: cell-based
[6] = system: PARP, cleaved PARP, LC3, ERK, p-ERK in HeLa cells; assay: Western blot analysis of protein expression; type: cell-based
[7] = system: A2780CP70 cisplatin-resistant ovarian cancer cell line; assay: Cell viability in A2780CP70 cells; type: cell-based
HeLa cells [8] = assay: MTT assay, in vitro anticancer activity in HeLa cells
HeLa cells [9] = assay: Cell cycle analysis; type: cell-based
[10] = system: KB-3-1 cervical cancer cell line; assay: Cell viability in KB-3-1 cells; type: cell-based
[11] = system: H460 CisR cisplatin-resistant lung cancer cell line; assay: Cell viability in H460 CisR cells; type: cell-based
HeLa cells [12] = assay: Cell viability in the presence of inhibitors; type: cell-based; conditions: 15 μM Z-VAD-FMK
[13] = system: KBCP20 cisplatin-resistant cervical cancer cell line; assay: Cell viability in KBCP20 cells; type: cell-based
[14] = Capacity factor on a C18 RP-HPLC column; type: physicochemical; conditions: isocratic 40:60 MeCN:H2O, 0.1% TFA; for MeCN Complex Capacity Factor: MeCN adduct of the complex
[15] = system: intracellular reactive oxygen species (ROS) in HeLa cells; assay: ROS analysis with DCFDA and flow cytometry; type: cell-based; conditions: DCFDA
HeLa cells [16] = assay: Annexin V/PI assay; type: cell-based
[17] = system: mitochondrial membrane potential (MMP) in HeLa cells; assay: JC-1 assay; type: cell-based; conditions: 13 at 5 or 10 μM

## N.N.[Cl][Pt][Cl] [Cisplatin, cisplatin]
[1]
  IC50: 430 ± 140 nM
[2]; A549 CisR cells
  IC50: 12400 ± 8500 nM
[2]; IC50 in A549 CisR divided by IC50 in A549
  RF (A549), resistance factor: 4.1
[3]
  IC50: 230 ± 70 nM
[4]
  IC50: 750 ± 430 nM
[5]
  IC50: 3000 ± 1800 nM
[6]
  expression levels of PARP, cleaved PARP, LC3, ERK, p-ERK: induced the increase of cleaved PARP levels
[7]; A2780CP70 cells
  IC50: 8200 ± 1800 nM
[7]; IC50 in A2780CP70 divided by IC50 in A2780
  RF (A2780), resistance factor: 36
HeLa cells [8]; read-out: 50% growth inhibitory concentration (IC50), MTT assay
  IC50: 3000 ± 1200 nM
HeLa cells [9]
  cell cycle arrest phase: inhibits cells predominantly in the S-phase
[10]
  IC50: 1000 ± 300 nM
[11]; H460 CisR cells
  IC50: 3400 ± 1600 nM
[11]; IC50 in H460 CisR divided by IC50 in H460
  RF (H460), resistance factor: 4.5
HeLa cells [12]
  change of IC50 in the presence of Z-VAD-FMK: increased by a factor of four
[13]
  IC50: 36000 ± 7000 nM

## COC(=O)c1ccnc(-c2cc(C(=O)OC)ccn2)c1.O.[C-]#[O+].[C-]#[O+].[C-]#[O+].[Re+] [Complex 11]
[14]
  MeCN Complex Capacity Factor: 8.2
  Aqua Complex Capacity Factor: 4.2
HeLa cells [8]
  relative cytotoxicity among the complexes: least active

## O.[C-]#[O+].[C-]#[O+].[C-]#[O+].[Re+].c1ccc(-c2ccnc3c2ccc2c(-c4ccccc4)ccnc23)cc1 [Complex 14]
[14]
  MeCN Complex Capacity Factor: >17
HeLa cells [8]
  relative cytotoxicity among the complexes: substantially diminished relative to that of 13

## OO [Complex H2O2, H2O2]
[15]
  increase in the intracellular ROS: greater than 30 fold

## COc1cc([C@@H]2c3cc4c(cc3[C@@H](O[C@@H]3O[C@@H]5CO[C@@H](C)O[C@H]5[C@H](O)[C@H]3O)[C@H]3COC(=O)[C@H]23)OCO4)cc(OC)c1O [etoposide]
HeLa cells [16]
  effect of pan-caspase inhibitor Z-VAD-FMK in the annexin V assay: reduce the apoptotic population

## carbonyl cyanide m-chlorophenyl hydrazine [CCCP]
[17]
  depolarization of the MMP (JC-1 aggregates): substantial reduction in the number of JC-1 aggregates
